“Also recorded” adds a separate entry of the source. Read-outs that look alike come from different tables or passages of the source.
What was measured:
G93A-SOD1 mice [1] = tested on: G93A-SOD1 mice
Protocol: NDGA was formulated into AIN93G laboratory mouse chow at 2500 ppm (approximately […] intake/mouse/day). […] G93A-SOD1 mice and nontransgenic littermates were fed this NDGA-containing diet, or a control diet, beginning at 90 D of age. An observer blinded to the treatment groups tested the animals on the rotarod task at 100 D and every 5 days thereafter. […] This is a very important point, as most forms of human ALS are sporadic and prophylactic treatment is not practical.

rats = conditions: rat, in vivo, po; cited from earlier work
G93A-SOD1 mice [2] = assay: G93A-SOD1 mouse ALS model, NDGA i.p.: rotorod and survival; format: in vivo
Protocol: More subtle defects in motor performance are measured using a rotorod device. The animals are placed on a horizontal rod set to spin about its long axis, initially at 1 rpm. The revolution rate is increased at a constant rate of 1 rpm every 10 sec and the experiment continues until the animal falls off the rod. In contrast to mice bearing mutant SOD1 transgenes, animals bearing the wild-type human SOD1 transgenes display healthy motor function.
The G93A-SOD1 mice were used to test for in vivo efficacy of a benchmark tethered bis(polyhydroxyphenyl) compound, nordihydroguaiaretic acid (NDGA). In one experiment, 10 G93A-SOD1 animals were trained to the rotorod task at 85 days of age. At 90 days of age, animals were divided into two groups of 5 animals each. One group was injected intraperitoneally with NDGA (10 mg/kg, 5 days/week, in 95% saline/5% DMSO vehicle). The control group received vehicle only. Animals were tested on the rotorod device every 5 days subsequently.
Initially, rotorod performance characteristics improve in all mice as the animals become acquainted with the apparatus. At 100 days animals obtain peak performance (FIG. 3A). At timepoints subsequent to 100 day, animals decline in motor performance. In order to control for differences in initial strength amongst the 10 animals, all data subsequent to the 100 day timepoint was expressed as a percentage relative to the peak performance at 100 day (FIGS. 3B and 3C). […] When the data in FIG. 3B were assessed using repeated measures analysis of variance (ANOVA), a significant age X treatment effect was observed (p<0.005). At the 120D timepoint, the statistical assessment by Student's t-test indicates p<0.08 between drug and vehicle groups (i.e. 92% probability of a protective drug effect).
The potency of NDGA in vitro inspired further study in vivo. Two separate studies were performed. In the first experiment, 10 G93A-SOD1 mice were randomized into groups receiving 10 mg/kg NDGA i.p. or vehicle alone, beginning at 90 D of age. […] Rotarod performance tests were conducted at 5 D intervals. […] The median lifespan of the five NDGA-treated animals was 127 D, as compared to 121 D for the control group, representing a 20% extension of lifespan after the start of treatment.
In a separate experiment, NDGA was administered intraperitoneally to a small group of G93A-SOD1 mice (5 control and 5 drug-treated animals; 10 mg/kg 5 days/week beginning at 90 D). In this paradigm, NDGA also extended survival although logrank statistics were not formally significant (median lifespan after start of treatment=31 D in control animals and 37 D in NDGA-treated animals; p=0.074 by logrank test). […] The i.p. administration of NDGA was somewhat affected by the inclusion of DMSO in vehicle; G93A-SOD1 mice receiving DMSO alone died approximately 10 D sooner than normally would be expected from these animals. Taken together, the data strongly indicate a positive effect of NDGA on the prognosis of disease in rapidly-progressing G93A-SOD1 mice.

G93A-SOD1 mice [3] = assay: Immunochemistry of lumbar spinal cord of G93A-SOD1 mice on oral NDGA (GFAP, F4/80); format: in vivo, mouse
Protocol: Mice were anesthetized with pentobarbital and perfused transcardially with 4% paraformaldehyde in phosphate buffer. The lumbar region (L1-L5) was processed for paraffin embedding. Immunochemistry was performed on […] sections, using commercially available antibodies, and tissue sections were routinely counterstained with hematoxylin and eosin. Polyclonal anti-SOD1 IgG was purchased from Chemicon (Temecula, Calif.). Polyclonal anti-5LOX IgG was purchased from Cayman Chemical (San Diego, Calif.). Monoclonal anti-5LOX was obtained from Transduction Laboratories (Lexington, Ky.). Polyclonal antibody against glial fibrillary acidic protein (GFAP) was purchased from Research Diagnostics International (Flanders, N.J.). FITC-conjugated anti-F4/80, which recognizes a microglial cell surface antigen (Drachman et al., 2002), was purchased from Serotec (Raleigh, N.C.). Positive control for 5LOX Western blots was SL-29 fibroblast lysate (Transduction Laboratories, provided with the antibody). Electrophoresis was performed on 4-20% gradient polyacrylamide gels, and bands were visualized with chemiluminescence detection reagents (Amersham).
Microglial proliferation is another neuroinflammatory feature inherent to motoneuron disease in the G93A-SOD1 mouse (Drachman et al., 2002). […]

Aβ-induced neurotoxicity = assay: Rat model of Aβ-induced neurotoxicity (ICV Aβ40 + Aβ42 + ApoE4), radial eight-arm maze; format: in vivo, Sprague-Dawley male rats; conditions: 0.25% NDGA diet
From the text: In this model, rats are infused intracerebroventricularly (ICV) with Aβ adsorbed to an apo-lipoprotein carrier. Thus, to determine whether dicatechol (e.g., microglial inhibitor nordihydroguaiaretic acid) blocks Aβ-induced neurotoxicity the Frautschy model was used. […] Each group consisted of six rats fed either a control or an NDGA supplemented diet (Table VII).
Rats were trained on a radial eight-arm maze as described previously. After they achieved 0-2 error level, they underwent surgery for implantation of the cannulae and osmotic pumps. Twenty-four hours after surgery, they were started on the dietary treatment.
Time and error scores from six trials for each experimental group were subjected to analysis of variance (ANOVA). Tucky-Kramer test for multiple comparisons was used as a posthoc test. Performance in the memory task was analyzed separately over all six trials.

Water solubility = format: physicochemical
mice = conditions: cited from earlier work

In the case of `C[C@H](Cc1ccc(O)c(O)c1)[C@@H](C)Cc1ccc(O)c(O)c1` [NDGA, 1,4-bis (3,4-Dihydroxyphenyl)-2,3-dimethylbutane], the “RR (survival, logrank analysis)” value (G93A-SOD1 mice [1]; 2500 ppm in chow from 90 D) is reported as 0.27, the “median age of death” value (G93A-SOD1 mice [1]; 2500 ppm in chow from 90 D) is reported as 140 D and the “pathological effects at necropsy” value (G93A-SOD1 mice [1]; mouse, in vivo) is reported as “no pathological effects of the drug were observed”. For the same compound, the weight changes (G93A-SOD1 mice [1]; mouse, in vivo) was “No weight changes were observed”, the “extension of paralytic phase (onset of paralysis to death)” value (G93A-SOD1 mice [1]; oral) was “approximately 40%” and the “rotarod performance” value (G93A-SOD1 mice [1]; oral) was “significantly improved rotarod performance”. For the same compound, the “Onset of frank paralysis, mean ± SD” value (G93A-SOD1 mice [1]; oral NDGA) was 121 ± 7.1 D, the “Onset of frank paralysis, median” value (G93A-SOD1 mice [1]; oral NDGA) was 120 D and the “Time between onset and death, mean ± SD” value (G93A-SOD1 mice [1]; oral NDGA) was 16.5 ± 7.9 D. The “Time between onset and death, median” value (G93A-SOD1 mice [1]; oral NDGA) was 14 D, the “extension of median lifespan” value (G93A-SOD1 mice [1]; oral, from 90 D) was 13 D and the “prolongation of lifespan after start of treatment” value (G93A-SOD1 mice [1]; oral, from 90 D) was 32%. For the same compound, the LD50 (rats) was “more than 2000 mg/kg”, the “median lifespan after start of treatment” value (G93A-SOD1 mice [2]; 10 mg/kg i.p. 5 days/week from 90 D) was 37 D and the “extension of lifespan after the start of treatment” value (G93A-SOD1 mice [2]; 10 mg/kg i.p. from 90 D) was 20%. For the same compound, the median lifespan (G93A-SOD1 mice [2]; 10 mg/kg i.p. from 90 D) was 127 D, the “reduction in rate of motor functional decline relative to vehicle” value (G93A-SOD1 mice [2]; 10 mg/kg i.p. from 90 D, linear regression 100-120D) was 38% and the “slope of motor functional decline” value (G93A-SOD1 mice [2]; 10 mg/kg i.p., 100-120D) was 2.96 % decrease/day. The “rotarod performance” value (G93A-SOD1 mice [2]; i.p. administration) was “not significantly affected”, the “F4/80-positive microglia, lumbar spinal cord” value (G93A-SOD1 mice [3]; 120 D of age) was “diminished the number of F4/80-positive microglia” and the “astrogliosis (GFAP-positive astrocytes), lumbar spinal cord” value (G93A-SOD1 mice [3]; 120 D old mice) was “significantly diminished astrogliosis; also recorded: significantly decreased the number of GFAP-positive astrocytes”. The “working memory errors and latency” value (Aβ-induced neurotoxicity; day 25) was “significant decrease in the number of working memory errors and latency”, the reference errors (Aβ-induced neurotoxicity; day 25 and day 30, not significant) was “suppressed reference errors” and the “water solubility” value (Water solubility) was “limited water solubility”. The “effects of long-term feeding” value (mice; 0.5% of the diet, long-term, mice) was “no ill effects” and the LD50 (mice; mouse, in vivo, ip) was “greater than 500 mg/kg”.
